# Source: article PMC6769468, “Endogenous Neuropeptide Nocistatin Is a Direct Agonist of Acid-Sensing Ion Channels (ASIC1, ASIC2 and ASIC3)” (Biomolecules, 2019)
# Ends that are not written are not given here.
# Biological target: T1, rat ASIC3 (Rattus norvegicus, UniProt O35240)
# T1 construct: expressed in transfected cells; host or cells: Xenopus laevis oocytes (injected)
# T1 sequence (O35240 1-533): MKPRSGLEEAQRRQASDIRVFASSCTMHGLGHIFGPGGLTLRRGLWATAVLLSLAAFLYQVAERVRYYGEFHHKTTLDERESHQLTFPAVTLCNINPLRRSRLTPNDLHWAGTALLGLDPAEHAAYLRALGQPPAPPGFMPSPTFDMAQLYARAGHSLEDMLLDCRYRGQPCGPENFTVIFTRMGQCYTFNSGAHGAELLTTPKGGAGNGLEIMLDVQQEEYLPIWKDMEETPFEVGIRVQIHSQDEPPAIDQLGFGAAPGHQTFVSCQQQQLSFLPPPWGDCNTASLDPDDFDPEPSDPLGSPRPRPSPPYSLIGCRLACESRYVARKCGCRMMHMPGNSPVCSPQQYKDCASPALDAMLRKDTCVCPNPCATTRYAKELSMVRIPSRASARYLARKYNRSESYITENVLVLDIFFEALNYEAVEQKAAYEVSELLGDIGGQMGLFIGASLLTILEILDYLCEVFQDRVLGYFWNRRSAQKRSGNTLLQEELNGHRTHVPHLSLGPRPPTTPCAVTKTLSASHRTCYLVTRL
# Assay: Whole-cell current activation, rat ASIC3 in X. laevis oocytes
# Type: cell-based
# Procedure: Oocytes expressed rASIC1a, rASIC1b, rASIC2a, and rASIC3 homomeric channels were prepared as described. Injected oocytes were kept for two–three days at 19 °C and then for up to seven days at 15 °C in ND-96 medium supplemented with gentamycin (50 μg·mL^−1) and containing (in mM): 96 NaCl, 2 KCl, 1.8 CaCl2, 1 MgCl2, and 10 HEPES titrated to pH 7.4 with NaOH. Electrophysiological recordings were performed using the GeneClamp500 amplifier (Axon Instruments, Inverurie, UK) at a holding potential of -50 mV. The data were filtered at 20 Hz and digitized at 100 Hz using the L780 AD converter (L-Card, Moscow, Russia). Microelectrodes were filled with 3 M KCl. The external bath solution was ND-96 with pH adjusted to 7.4/7.8 (10 mM HEPES) /8.5 (10 mM Tris). Nocistatin containing solutions were freshly prepared and buffered each experimental day in ND-96 bath solution (pH 7.4/7.8/8.5). Proton-activated currents through ASIC channels were elicited by application of ND-96, in which 10 mM of HEPES was substituted with 10 mM MES at pH 5.5/ 10 mM acetic acid at pH 4.5. […]
# All data are presented as mean ± SEM. The significance of normalized data differences was determined with a non-parametric Kruskal-Wallis ANOVA test with the significance level * p < 0.05 and ** p < 0.01; ns, non-significant.
sequence,measurement,setting,value
MPRVRSVVQARDAEPEADAEPVADEADEVEQKQLQ [rNS],tmax greater than for protons by,"1 mM rNS vs pH drop 7.4–5.5, slower activation",~ 49%
same,τdes (desensitization time constant),"1 mM rNS, conditioning pH 7.4, mean ± S.E. from 4–7 measurements",0.4 ± 0.1 s
